From US4377583A, “N-Methyl-D-glucamine salt of with 3,4-dihydro-5-methyl-6-(2-methylpropyl)-4-oxothieno[2,3-d]pyrimidine-2-c arboxylic acid” (Mead Johnson & Company, priority 1981, dated 1983)
Structures can show the parent of a compound that is named as a salt.

Columns and labels:
[1] = Water solubility of isolated salts of MJ 12175 (redissolution); type: physicochemical; settings: for H2O Solubility isolated salt: room temperature (about 25° C.)
Description: (§1) Many conventional pharmaceutically acceptable amine salts of MJ 12175 are not well suited for the present use due to limited solubility, lack of stability, pH ranges differing sufficiently from physiological pH (~7.4) to the extent that irritation of tissue becomes a problem.
(§2) The amine salts of MJ 12175 shown in Table 1 were first prepared in situ by adding the amine to a suspension of MJ 12175 in a quantity of water sufficient to give a 4% aqueous solution of the resulting salt. When a precipitate formed on amine addition indicating relative insolubility, pH was not measured as in the cases of salts 4 through 8 in Table 1. Although solutions were obtained with the other salts formed in situ supersaturation of these solutions appears likely since the four salts (Nos. 2, 3, 9, 11) which were isolated were less than 4% soluble on redissolution. […] The three crystalline salts were the only examples where solid precipitated from the in situ solutions on standing. Of the three crystalline isolated amine salts of MJ 12175, the glucamine salt best meets the water solubility and pH criteria.

[2] = Stability of aqueous solutions on extended storage
pH of salts of MJ 12175 = type: physicochemical; settings: room temperature (about 25° C.)
Description: as §1, §2

[3] = cited from earlier work
[4] = Physical state of isolated salts; type: physicochemical
Description: as §2

[5] = Water solubility of salts of MJ 12175 formed in situ (4% aqueous solution); type: physicochemical; settings: room temperature (about 25° C.); precipitate formed on amine addition, indicating relative insolubility
Description: as §1, §2

## Cc1c(CC(C)C)sc2nc(C(=O)O)[nH]c(=O)c12 [Salt No. 2, 3,4-Dihydro-5-methyl-6-(2-methylpropyl)-4-oxothieno[2,3-d]pyrimidine-2-carboxylic Acid N-methyl-D-glucamine Salt]
[1]
  H2O Solubility isolated salt: 12000 µg/mL
[1]; water, isolated salts, redissolution
  solubility: < 40000 µg/mL
[2]
  stability of aqueous solutions: demonstrated the stability of its aqueous solutions on extended storage
pH of salts of MJ 12175
  pH: 6.4

## Cc1c(CC(C)C)sc2nc(C(=O)O)[nH]c(=O)c12 [potassium salt]
[3]; not desirable for nasal instillation
  pH of solutions: alkaline pH
[3]; relative to MJ 12175
  water solubility: improved water solubility

## Cc1c(CC(C)C)sc2nc(C(=O)O)[nH]c(=O)c12 [compound 3]
[1]; isolated salts, redissolution
  solubility of isolated salts on redissolution: less than 4%
[1]
  H2O Solubility isolated salt: 5000 µg/mL
pH of salts of MJ 12175
  pH: 4.7

## Cc1c(CC(C)C)sc2nc(C(=O)O)[nH]c(=O)c12 [compound 9]
[1]; isolated salts, redissolution
  solubility of isolated salts on redissolution: less than 4%
[1]
  H2O Solubility isolated salt: < 1000 µg/mL
pH of salts of MJ 12175
  pH: 6.81

## Cc1c(CC(C)C)sc2nc(C(=O)O)[nH]c(=O)c12 [compound 11]
[1]; isolated salts, redissolution
  solubility of isolated salts on redissolution: less than 4%
[4]
  physical state of isolated salt: remained a non-crystallinetar during attempted purification
pH of salts of MJ 12175
  pH: 6.42

## Cc1c(CC(C)C)sc2nc(C(=O)O)[nH]c(=O)c12 [compound 13]
pH of salts of MJ 12175
  pH: 8.08

## Cc1c(CC(C)C)sc2nc(C(=O)O)[nH]c(=O)c12 [compound 4]
[5]
  H2O Solubility in situ (ppt): ppt

## Cc1c(CC(C)C)sc2nc(C(=O)O)[nH]c(=O)c12 [compound 14]
pH of salts of MJ 12175
  pH: 9.59

## Cc1c(CC(C)C)sc2nc(C(=O)O)[nH]c(=O)c12 [compound 12]
pH of salts of MJ 12175
  pH: 6.29

## Cc1c(CC(C)C)sc2nc(C(=O)O)[nH]c(=O)c12 [compound 10]
pH of salts of MJ 12175
  pH: 4.55

## Cc1c(CC(C)C)sc2nc(C(=O)O)[nH]c(=O)c12 [MJ 12175, 3,4-Dihydro-5-methyl-6-(2-methylpropyl)-4-oxothieno[2,3-d]pyrimidine-2-carboxylic Acid]
[1]; listed as 1
  H2O Solubility isolated salt: 8900 µg/mL
pH of salts of MJ 12175; listed as 1
  pH: 11.22
